Consider 24 compounds from patent publication US20090197910A1, “NOVEL VIRAL REPLICATION INHIBITORS” (KATHOLIEKE UNIVERSITEIT LEUVEN, priority 2006, published 2009).

Data set [1] concerns HCV Subgenomic Replicon. The data set can be described thus: HCV-Huh-5-2 replicon cell assay (luciferase). Format: cell-based, Hepatitis C virus. To be noted: for EC50: Hepatitis C virus, HCV subgenomic replicon in Huh-5-2 cells, 72 hours, luciferase, read-out: EC50 (concentration required to inhibit luciferase activity in the replicon system by 50%); for SI (selectivity index, ratio of CC50 to EC50): Huh-5-2 cells. The method, then:
(§1) Huh-5-2 cells [a cell line with a persistent HCV replicon I3891uc-ubi-neo/NS3-3′/5.1; replicon with firefly luciferase-ubiquitin-neomycin phosphotransferase fusion protein and EMCV-IRES driven NS3-5B HCV polyprotein] was cultured in RPMI medium (Gibco) supplemented with 10% fetal calf serum, 2 mM L-glutamine (Life Technologies), 1× non-essential amino acids (Life Technologies); 100 IU/ml penicillin and 100 ug/ml streptomycin and 250 ug/ml G418 (Geneticin, Life Technologies). Cells were seeded at a densitiy of 7000 cells per well in 96 well View Plate™ (Packard) in medium containing the same components as described above, except for G418. Cells were allowed to adhere and proliferate for 24 hr. At that time, culture medium was removed and serial dilutions of the test compounds were added in culture medium lacking G418. Interferon alfa 2a (500 IU) was included as a positive control. Plates were further incubated at 37° C. and 5% CO2 for 72 hours. Replication of the HCV replicon in Huh-5 cells results in luciferase activity in the cells. Luciferase activity is measured by adding 50 μl of 1× Glo-lysis buffer (Promega) for 15 minutes followed by 50 ul of the Steady-Glo Luciferase assay reagent (Promega). Luciferase activity is measured with a luminometer and the signal in each individual well is expressed as a percentage of the untreated cultures. Parallel cultures of Huh-5-2 cells, seeded at a density of 7000 cells/well of classical 96-well cell culture plates (Becton-Dickinson) are treated in a similar fashion except that no Glo-lysis buffer or Steady-Glo Luciferase reagent is added. Instead the density of the culture is measured by means of the MTS method (Promega).
Background: In antiviral work, replicon cells carry a viral genome segment that copies itself.

Data set [2] is described as follows: Cytostatic effect on Huh-5-2 cells (MTS method, parallel cultures). Format: cell-based. As to conditions: human, read-out: CC50 (concentration required to inhibit the proliferation of exponentially growing Huh-5-2 cells by 50%). The method, then: as §1
A general note: Tetrazolium dyes change colour on reduction, which living cells bring about.

For `O=c1oc2ccccc2cc1CSc1nc2ccccc2[nH]1` [Compound 4a, 3-(1H-Benzoimidazol-2-ylsulfanylmethyl)-chromen-2-one], in data set [1], the EC50 was 26.6 µM and the “SI (selectivity index, ratio of CC50 to EC50)” value is on record as 3.38. Further, the CC50 at 72 h in data set [2] was 90.1 µM.

In the case of `O=c1oc2ccccc2cc1CSc1nc2cc(F)ccc2[nH]1` [Compound 4b, 3-(5-Fluoro-1H-benzoimidazol-2-ylsulfanylmethyl)-chromen-2-one], in data set [1], the EC50 was determined as 11.5 µM and the “SI (selectivity index, ratio of CC50 to EC50)” value was 3.89. The CC50 at 72 h in data set [2] is 44.8 µM.

For the compound `O=C(c1ccccc1)c1ccc2[nH]c(SCc3cc4ccccc4oc3=O)nc2c1` [Compound 4c, 3-(5-Benzoyl-1H-benzoimidazol-2-ylsulfanylmethyl)-chromen-2-one], in data set [1], the EC50 was 6.61 µM and the “SI (selectivity index, ratio of CC50 to EC50)” value came out at 5.58. Further, the CC50 at 72 h in data set [2] amounted to 36.8 µM.

For the compound `Cc1cc2nc(SCc3cc4ccccc4oc3=O)[nH]c2cc1C` [Compound 4d, 3-(5,6-Dimethyl-1H-benzoimidazol-2-ylsulfanylmethyl)-chromen-2-one], in data set [1], the EC50 worked out at 15.2 µM and the “SI (selectivity index, ratio of CC50 to EC50)” value came to 4.37. For the same compound, the CC50 at 72 h in data set [2] was 66.6 µM.

Turning to `O=c1oc2ccccc2cc1CSc1nc2cc(Cl)c(Cl)cc2[nH]1` [Compound 4e, 3-(5,6-Dichloro-1H-benzoimidazol-2-ylsulfanylmethyl)-chromen-2-one], in data set [1], the EC50 was found to be 15.5 µM and the “SI (selectivity index, ratio of CC50 to EC50)” value turned out to be 4.80. Also, the CC50 at 72 h in data set [2] was 74.4 µM.

Turning to `Cc1cccc2cc(CSc3nc4ccccc4[nH]3)c(=O)oc12` [Compound 4f, 3-(1H-benzoimidazol-2-ylsulfanylmethyl)-8-methyl-chromen-2-one], in data set [1], the EC50 was 9.89 µM and the “SI (selectivity index, ratio of CC50 to EC50)” value was determined as 2.77. In addition, the CC50 at 72 h in data set [2] amounted to 27.3 µM.

For the compound `O=c1oc2ccc(Br)cc2cc1CSc1nc2ccccc2[nH]1` [Compound 4g, 3-(1H-Benzoimidazol-2-ylsulfanylmethyl)-6-bromo-chromen-2-one], in data set [1], the EC50 turned out to be 3.98 µM and the “SI (selectivity index, ratio of CC50 to EC50)” value came out at 10.4. The CC50 at 72 h in data set [2] was found to be 41.7 µM.

On to `COc1cccc2cc(CSc3nc4cc(F)ccc4[nH]3)c(=O)oc12` [Compound 4h, 3-(5-Fluoro-1H-benzoimidazol-2-ylsulfanylmethyl)-8-methoxy-chromen-2-one], for which, in data set [1], the EC50 was found to be 15.9 µM and the “SI (selectivity index, ratio of CC50 to EC50)” value amounted to 2.63. Moreover, the CC50 at 72 h in data set [2] was 41.9 µM.

Consider `O=c1oc2ccc(Br)cc2cc1CSc1nc2cc(F)ccc2[nH]1` [Compound 4i, 6-Bromo-3-(5-fluoro-1H-benzoimidazol-2-ylsulfanylmethyl)-chromen-2-one], for which, in data set [1], the EC50 came to 3.36 µM and the “SI (selectivity index, ratio of CC50 to EC50)” value turned out to be 7.96. The CC50 at 72 h in data set [2] came to 26.7 µM.

As for `COc1cccc2cc(CSc3nc4cc(Cl)c(Cl)cc4[nH]3)c(=O)oc12` [Compound 4j, 3-(5,6-Dichloro-1H-benzoimidazol-2-ylsulfanylmethyl)-8-methoxy-chromen-2-one], in data set [1], the EC50 was determined as 3.58 µM and the “SI (selectivity index, ratio of CC50 to EC50)” value is 3.12. In addition, in data set [2], the CC50 at 72 h was determined as 11.1 µM.

With `O=c1oc2ccc(Br)cc2cc1CSc1nc2cc(Cl)c(Cl)cc2[nH]1` [Compound 4k, 6-Bromo-3-(5,6-dichloro-1H-benzoimidazol-2-ylsulfanylmethyl)-chromen-2-one], in data set [1], the EC50 came out at 2.29 µM and the “SI (selectivity index, ratio of CC50 to EC50)” value came to 19.3. Moreover, the CC50 at 72 h in data set [2] amounted to 44.1 µM.

Consider `CC(=O)OCC1OC(n2c(SCc3cc4ccccc4oc3=O)nc3ccccc32)C(OC(C)=O)C(OC(C)=O)C1OC(C)=O` (stereo not drawn) [Compound 7a, Acetic acid 3,5-diacetoxy-2-acetoxymethyl-6-[2-(2-oxo-2H-chromen-3-ylmethylsulfanyl)-benzoimidazol-1-yl]-tetrahydro-pyran-4-yl ester], for which, in data set [1], the EC50 was 11.1 µM and the “SI (selectivity index, ratio of CC50 to EC50)” value turned out to be 6.88. The CC50 at 72 h in data set [2] amounted to 76.4 µM.

Consider `CC(=O)OCC1OC(n2c(SCc3cc4ccccc4oc3=O)nc3cc(C)ccc32)C(OC(C)=O)C(OC(C)=O)C1OC(C)=O` (stereo not drawn) [Compound 7b, Acetic acid 3,5-diacetoxy-2-acetoxymethyl-6-[5-methyl-2-(2-oxo-2H-chromen-3-ylmethylsulfanyl)-benzoimidazol-1-yl]-tetrahydro-pyran-4-yl ester], for which, in data set [1], the EC50 amounted to 8.28 µM and the “SI (selectivity index, ratio of CC50 to EC50)” value worked out at 5.42. Also, the CC50 at 72 h in data set [2] was determined as 44.8 µM.

For the compound `CC(=O)OCC1OC(n2c(SCc3cc4ccccc4oc3=O)nc3cc(F)ccc32)C(OC(C)=O)C(OC(C)=O)C1OC(C)=O` (stereo not drawn) [Compound 7c, Acetic acid 3,5-diacetoxy-2-acetoxymethyl-6-[5-fluoro-2-(2-oxo-2H-chromen-3-ylmethylsulfanyl)-benzoimidazol-1-yl]-tetrahydro-pyran-4-yl ester], in data set [1], the EC50 is 3.88 µM and the “SI (selectivity index, ratio of CC50 to EC50)” value is given as 11.1. Moreover, the CC50 at 72 h in data set [2] came out at 43.1 µM.

In the case of `CC(=O)OCC1OC(n2c(SCc3cc4ccccc4oc3=O)nc3cc(Cl)c(Cl)cc32)C(OC(C)=O)C(OC(C)=O)C1OC(C)=O` (stereo not drawn) [Compound 7d, Acetic acid 3,5-diacetoxy-2-acetoxymethyl-6-[5,6-dichloro-2-(2-oxo-2H-chromen-3-ylmethylsulfanyl)-benzoimidazol-1-yl]-tetrahydro-pyran-4-yl ester], in data set [1], the EC50 stood at 3.14 µM and the “SI (selectivity index, ratio of CC50 to EC50)” value was found to be 6.33. In addition, the CC50 at 72 h in data set [2] worked out at 19.8 µM.

`CC(=O)OCC1OC(n2c(SCc3cc4cc(Br)ccc4oc3=O)nc3ccccc32)C(OC(C)=O)C(OC(C)=O)C1OC(C)=O` (stereo not drawn) [Compound 7e, Acetic acid 4,5-diacetoxy-2-acetoxymethyl-6-[2-(6-bromo-2-oxo-2H-chromen-3-ylmethylsulfanyl)-benzoimidazol-1-yl]-tetrahydro-pyran-3-yl ester]: in data set [1], the EC50 is 4.12 µM and the “SI (selectivity index, ratio of CC50 to EC50)” value was found to be 10.4. The CC50 at 72 h in data set [2] stood at 43.1 µM.

As to `CC(=O)OCC1OC(n2c(SCc3cc4cc(Br)ccc4oc3=O)nc3cc(F)ccc32)C(OC(C)=O)C(OC(C)=O)C1OC(C)=O` (stereo not drawn) [Compound 7f, Acetic acid 3,5-diacetoxy-2-acetoxymethyl-6-[2-(6-bromo-2-oxo-2H-chromen-3-ylmethylsulfanyl)-5-fluoro-benzoimidazol-1-yl]-tetrahydro-pyran-4-yl ester], in data set [1], the EC50 was 3.33 µM and the “SI (selectivity index, ratio of CC50 to EC50)” value is 6.59. Also, the CC50 at 72 h in data set [2] came out at 21.9 µM.

In the case of `COc1cccc2cc(CSc3nc4cc(Cl)c(Cl)cc4n3C3OC(COC(C)=O)C(OC(C)=O)C(OC(C)=O)C3OC(C)=O)c(=O)oc12` (stereo not drawn) [Compound 7h, Acetic acid 3,4,5-triacetoxy-6-[5,6-dichloro-2-(8-methoxy-2-oxo-2H-chromen-3-ylmethylsulfanyl)-benzoimidazol-1-yl]-tetrahydro-pyran-2-ylmethyl ester], in data set [1], the EC50 was 4.35 µM and the “SI (selectivity index, ratio of CC50 to EC50)” value is listed as 7.62. Also, in data set [2], the CC50 at 72 h was 33.1 µM.

With `COc1cccc2cc(CSc3nc4cccnc4[nH]3)c(=O)oc12` [Compound 16b, 3-(3H-Imidazo[4,5-b]pyridin-2-ylsulfanylmethyl)-8-methoxy-chromen-2-one], in data set [1], the EC50 was found to be 10.9 µM and the “SI (selectivity index, ratio of CC50 to EC50)” value stood at 2.78. The CC50 at 72 h in data set [2] is 30.3 µM.

Turning to `O=c1oc2ccc(Br)cc2cc1CSc1nc2cccnc2[nH]1` [Compound 16c, 3-(3H-Imidazo[4,5-b]pyridin-2-ylsulfanylmethyl)-6-bromo-chromen-2-one], in data set [1], the EC50 stood at 6.8 µM and the “SI (selectivity index, ratio of CC50 to EC50)” value is 18.82. For the same compound, the CC50 at 72 h in data set [2] is 128 µM.

Consider `O=c1oc2ccccc2cc1CSc1nc2cnc(Cl)nc2[nH]1` [Compound 16d, 3-(2-Chloro-9H-purin-8-ylsulfanylmethyl)-chromen-2-one], for which, in data set [1], the EC50 was determined as 2.03 µM and the “SI (selectivity index, ratio of CC50 to EC50)” value was found to be 53.69. In addition, the CC50 at 72 h in data set [2] was determined as 109 µM.

Regarding `COc1cccc2cc(CSc3nc4cnc(Cl)nc4[nH]3)c(=O)oc12` [Compound 16e, 3-(2-Chloro-9H-purin-8-ylsulfanylmethyl)-8-methoxy-chromen-2-one], in data set [1], the EC50 was 19.6 µM and the “SI (selectivity index, ratio of CC50 to EC50)” value turned out to be 4.80. The CC50 at 72 h in data set [2] was determined as 94 µM.

As to `O=c1oc2ccccc2cc1CSc1nc2ccccc2o1` [Compound 19a, 3-(Benzooxazol-2-ylsulfanylmethyl)-chromen-2-one], in data set [1], the EC50 stood at 11.7 µM and the “SI (selectivity index, ratio of CC50 to EC50)” value is given as 3.86. In addition, in data set [2], the CC50 at 72 h amounted to 45.2 µM.

Turning to `O=c1oc2ccc(Br)cc2cc1CSc1nc2ccccc2o1` [Compound 19c, 3-(Benzooxazol-2-ylsulfanylmethyl)-6-bromo-chromen-2-one], in data set [1], the EC50 is 11.8 µM and the “SI (selectivity index, ratio of CC50 to EC50)” value was found to be 11.10. Besides, the CC50 at 72 h in data set [2] came to 131 µM.
